Measured values published in ChEMBL document CHEMBL5252641, “Design, synthesis, and evaluation of benzofuran-based chromenochalcones for antihyperglycemic and antidyslipidemic activities” (RSC Med Chem, 2023).
The source made the active and inactive calls. The calls are words filed in the database; no cut-off is given here.

Assays:
Syrian golden hamster [1] = experiment: Antidyslipidemic activity in Triton-induced hyperlipidemic Syrian golden hamster model assessed as decrease in total cholesterol level at 50 mg/kg measured after 18 hrs; format: functional, Mesocricetus auratus; set-up: scale not given: the % may be the effect or the level left
Syrian golden hamster [2] = experiment: Antidyslipidemic activity in Triton-induced hyperlipidemic Syrian golden hamster model assessed as decrease in triglyceride level at 50 mg/kg measured after 18 hrs; format: functional, Mesocricetus auratus; set-up: scale not given: the % may be the effect or the level left
L6 [3] = experiment: Induction of glucose uptake in rat L6 cells expressing GLUT4 myc epitopes at 10 uM incubated for 24 hrs by scintillation counting method relative to control; format: functional
Syrian golden hamster [4] = experiment: Antidyslipidemic activity in Triton-induced hyperlipidemic Syrian golden hamster model assessed as increase in lecithin-cholesterol acyltransferase level at 50 mg/kg measured after 18 hrs; format: functional, Mesocricetus auratus
Syrian golden hamster [5] = experiment: Antidyslipidemic activity in Triton-induced hyperlipidemic Syrian golden hamster model assessed as increase in post-heparin lipolytic activity at 50 mg/kg measured after 18 hrs; format: functional, Mesocricetus auratus
Syrian golden hamster [6] = experiment: Antidyslipidemic activity in Triton-induced hyperlipidemic Syrian golden hamster model assessed as decrease in PL level at 50 mg/kg measured after 18 hrs; format: functional, Mesocricetus auratus; set-up: scale not given: the % may be the effect or the level left
[7] = Antioxidant activity assessed as hydroxyl radical scavenging activity at 100 uM incubated for 90 mins by spectrophotometric analysis; format: functional
[8] = Antioxidant activity assessed as superoxide anion radical scavenging activity at 100 uM incubated for 30 mins by spectrophotometric analysis; format: functional
Rattus norvegicus [9] = experiment: Antidiabetic activity in streptozotocin induced hyperglycemic Wistar rat model assessed as improvement in blood glucose level at 100 mg/kg,po measured upto 24 hrs relative to control; format: functional
Rattus norvegicus [10] = experiment: Antidiabetic activity in streptozotocin induced hyperglycemic Wistar rat model assessed as improvement in blood glucose level at 100 mg/kg,po measured upto 5 hrs relative to control; format: functional
L6 [11] = experiment: Induction of GLUT4myc translocation to rat L6 cells surface at 5 to 25 uM incubated for 20 mins followed by insulin stimulation by colorimetric assay; format: functional, cell-based; conditions: dose 5-25 µM
L6 [12] = experiment: Induction of GLUT4myc translocation to rat L6 cells surface measured after 16 hrs by colorimetric assay; format: functional, cell-based; conditions: dose 5-25 µM
L6 [13] = experiment: Induction of glucose uptake in rat L6 cells expressing GLUT4 myc epitopes at 5 uM incubated for 24 hrs by scintillation counting method relative to control; format: functional
L6 [14] = experiment: Induction of insulin stimulated glucose uptake in rat L6 cells expressing GLUT4 myc epitopes at 10 uM preincubated for 16 hrs followed by 3 hrs incubation under serum deprived medium prior to insulin stimulation for 20 mins; format: functional, cell-based; conditions: time 1160.0 min
L6 [15] = experiment: Cytotoxicity against rat L6 cells assessed as reduction in cell viability at 5 to 100 uM incubated overnight by MTT assay; format: toxicity, cell-based; conditions: l6, 100 µM, dose 5-100 µM
L6 [16] = experiment: Cytotoxicity against rat L6 cells assessed as reduction in cell viability at 10 uM by MTT assay; format: toxicity, cell-based; conditions: l6, 10 µM

CC1(C)C=Cc2c(O)c(C(=O)/C=C/c3ccc4oc(C(=O)c5ccc(Cl)cc5)cc4c3)c3c(c2O1)C=CC(C)(C)O3
Activity (Syrian golden hamster [1]): 11%
Activity (Syrian golden hamster [2]): 24%
Activity (L6 [3]): 27%
Activity (Syrian golden hamster [4]): 15%
Activity (Syrian golden hamster [5]): 26%
Activity (Syrian golden hamster [6]): 16%
Activity [7]: 13
Activity [8]: 21

CC1(C)C=Cc2c(O)c(C(=O)/C=C/c3ccc4occc4c3)c3c(c2O1)C=CC(C)(C)O3
Activity (Syrian golden hamster [1]): 11%
Activity (Rattus norvegicus [9]): 0.81%
Activity (Rattus norvegicus [10]): 2.3%
Activity (Syrian golden hamster [2]): 19%
Activity (L6 [3]): 124%
Activity (Syrian golden hamster [4]): 15%
Activity (Syrian golden hamster [5]): 22%
Activity (Syrian golden hamster [6]): 13%
Activity [7]: 12
Activity [8]: 16

CC(C)=CCCC1(C)C=Cc2c(ccc(C(=O)/C=C/c3ccc4oc(C(=O)c5ccccc5)cc4c3)c2O)O1 (stereo not drawn)
Activity (Syrian golden hamster [1]): 21%
Activity (Syrian golden hamster [2]): 10%
Activity (L6 [3]): 20.5%
Activity (Syrian golden hamster [4]): 25%
Activity (Syrian golden hamster [5]): 18%
Activity (Syrian golden hamster [6]): 13%
Activity [7]: 18
Activity [8]: 18

CC(C)=CCCC1(C)C=Cc2ccc(O)c(C(=O)/C=C/c3ccc4occc4c3)c2O1 (stereo not drawn)
Activity (Syrian golden hamster [1]): 10%
Activity (Syrian golden hamster [2]): 11%
Activity (L6 [3]): 108%
Activity (Syrian golden hamster [4]): 14%
Activity (Syrian golden hamster [5]): 17%
Activity (Syrian golden hamster [6]): 11%
Activity [7]: 19
Activity [8]: 11

COc1ccc(C(=O)c2cc3cc(/C=C/C(=O)c4ccc5c(c4O)C=CC(C)(C)O5)ccc3o2)cc1
Activity (Syrian golden hamster [1]): 15%
Activity (Syrian golden hamster [2]): 16%
Activity (L6 [3]): 109.5%
Activity (Syrian golden hamster [4]): 19%
Activity (Syrian golden hamster [5]): 21%
Activity (Syrian golden hamster [6]): 13%
Activity [7]: 11
Activity [8]: 16

OC[C@@H](O)[C@@H](O)[C@H](O)[C@H](O)CO
Activity [7]: 39

COc1ccc(C(=O)c2cc3cc(/C=C/C(=O)c4c(O)c5c(c6c4OC(C)(C)C=C6)OC(C)(C)C=C5)ccc3o2)cc1
Activity (Syrian golden hamster [1]): 9%
Activity (Syrian golden hamster [2]): 15%
Activity (L6 [3]): 22%
Activity (Syrian golden hamster [4]): 12%
Activity (Syrian golden hamster [5]): 21%
Activity (Syrian golden hamster [6]): 13%
Activity [7]: 17
Activity [8]: 12

CC(C)=CCCC1(C)C=Cc2ccc(O)c(C(=O)/C=C/c3ccc4oc(C(=O)c5ccc(Cl)cc5)cc4c3)c2O1 (stereo not drawn)
Activity (Syrian golden hamster [1]): 11%
Activity (Syrian golden hamster [2]): 18%
Activity (L6 [3]): 4%
Activity (Syrian golden hamster [4]): 15%
Activity (Syrian golden hamster [5]): 24%
Activity (Syrian golden hamster [6]): 18%
Activity [7]: 13
Activity [8]: 12

COc1ccc(C(=O)c2cc3cc(/C=C/C(=O)c4c(O)c5c(c6c4OC(C)(CCC=C(C)C)C=C6)OC(C)(CCC=C(C)C)C=C5)ccc3o2)cc1 (stereo not drawn)
Activity (Syrian golden hamster [1]): 18%
Activity (Syrian golden hamster [2]): 14%
Activity (L6 [3]): 37%
Activity (Syrian golden hamster [4]): 21%
Activity (Syrian golden hamster [5]): 16%
Activity (Syrian golden hamster [6]): 13%
Activity [7]: 11
Activity [8]: 9

CC(C)=CCCC1(C)C=Cc2ccc(O)c(C(=O)/C=C/c3ccc4oc(C(=O)c5ccccc5)cc4c3)c2O1 (stereo not drawn)
Activity (Syrian golden hamster [1]): 17%
Activity (Syrian golden hamster [2]): 8%
Activity (L6 [3]): 82.5%
Activity (Syrian golden hamster [4]): 19%
Activity (Syrian golden hamster [5]): 13%
Activity (Syrian golden hamster [6]): 6%
Activity [7]: 13
Activity [8]: 12

COc1ccc(C(=O)c2cc3cc(/C=C/C(=O)c4c(O)ccc5c4OC(C)(CCC=C(C)C)C=C5)ccc3o2)cc1 (stereo not drawn)
Activity (Syrian golden hamster [1]): 16%
Activity (Syrian golden hamster [2]): 16%
Activity (L6 [3]): 65.5%
Activity (Syrian golden hamster [4]): 19%
Activity (Syrian golden hamster [5]): 19%
Activity (Syrian golden hamster [6]): 15%
Activity [7]: 13
Activity [8]: 11

Cc1ccc(C)c(OCCCC(C)(C)C(=O)O)c1 [GEMFIBROZIL]
Activity (Syrian golden hamster [1]): 38%
Activity (Syrian golden hamster [2]): 36%
Activity (Syrian golden hamster [4]): 42%
Activity (Syrian golden hamster [5]): 41%
Activity (Syrian golden hamster [6]): 34%

CC1(C)C=Cc2c(O)c(C(=O)/C=C/c3ccc4oc(C(=O)c5ccccc5)cc4c3)c3c(c2O1)C=CC(C)(C)O3
Activity (Syrian golden hamster [1]): 10%
Activity (Syrian golden hamster [2]): 18%
Activity (L6 [3]): 26.5%
Activity (Syrian golden hamster [4]): 14%
Activity (Syrian golden hamster [5]): 23%
Activity (Syrian golden hamster [6]): 16%
Activity [7]: 11
Activity [8]: 15

COc1ccc(C(=O)c2cc3cc(/C=C/C(=O)c4c(O)ccc5c4OC(C)(C)C=C5)ccc3o2)cc1
Activity (Syrian golden hamster [1]): 10%
Activity (Rattus norvegicus [9]): 16.8%
Activity (L6 [11]): Active
Activity (Rattus norvegicus [10]): 18.7%
Activity (Syrian golden hamster [2]): 13%
Activity (L6 [3]): 220.5%
Activity (Syrian golden hamster [4]): 12%
Activity (Syrian golden hamster [5]): 17%
Activity (Syrian golden hamster [6]): 11%
Activity (L6 [12]): Dose-Dependent Effect
Activity (L6 [13]): 93%
Activity [7]: 7
Activity (L6 [14]): inactive
Activity [8]: 10
Activity (L6 [15]): Non-Toxic

CC1(C)C=Cc2ccc(O)c(C(=O)/C=C/c3ccc4occc4c3)c2O1
Activity (Syrian golden hamster [1]): 14%
Activity (Syrian golden hamster [2]): 11%
Activity (Syrian golden hamster [4]): 18%
Activity (Syrian golden hamster [5]): 21%
Activity (Syrian golden hamster [6]): 19%
Activity (L6 [16]): Toxic
Activity [7]: 15
Activity [8]: 18

CC1(C)C=Cc2c(ccc(C(=O)/C=C/c3ccc4occc4c3)c2O)O1
Activity (Syrian golden hamster [1]): 13%
Activity (Syrian golden hamster [2]): 15%
Activity (L6 [3]): 161.5%
Activity (Syrian golden hamster [4]): 17%
Activity (Syrian golden hamster [5]): 19%
Activity (Syrian golden hamster [6]): 10%
Activity (L6 [13]): 96%
Activity [7]: 12
Activity [8]: 16

CC(C)=CCCC1(C)C=Cc2ccc(O)c(C(=O)/C=C/c3ccc4oc(C(=O)c5ccc(C)cc5)cc4c3)c2O1 (stereo not drawn)
Activity (Syrian golden hamster [1]): 18%
Activity (Syrian golden hamster [2]): 14%
Activity (L6 [3]): 47.4%
Activity (Syrian golden hamster [4]): 22%
Activity (Syrian golden hamster [5]): 22%
Activity (Syrian golden hamster [6]): 17%
Activity [7]: 11
Activity [8]: 19

Cc1ccc(C(=O)c2cc3cc(/C=C/C(=O)c4c(O)ccc5c4OC(C)(C)C=C5)ccc3o2)cc1
Activity (Syrian golden hamster [1]): 16%
Activity (Syrian golden hamster [2]): 15%
Activity (L6 [3]): 72.9%
Activity (Syrian golden hamster [4]): 20%
Activity (Syrian golden hamster [5]): 19%
Activity (Syrian golden hamster [6]): 11%
Activity [7]: 18
Activity [8]: 13

COc1ccc(C(=O)c2cc3cc(/C=C/C(=O)c4ccc5c(c4O)C=CC(C)(CCC=C(C)C)O5)ccc3o2)cc1 (stereo not drawn)
Activity (Syrian golden hamster [1]): 7%
Activity (Syrian golden hamster [2]): 10%
Activity (L6 [3]): 6%
Activity (Syrian golden hamster [4]): 9%
Activity (Syrian golden hamster [5]): 14%
Activity (Syrian golden hamster [6]): 10%
Activity [7]: 7
Activity [8]: 9

Oc1ncnc2[nH]ncc12
Activity [8]: 37

CC(C)=CCCC1(C)C=Cc2c(ccc(C(=O)/C=C/c3ccc4occc4c3)c2O)O1 (stereo not drawn)
Activity (Syrian golden hamster [1]): 16%
Activity (Rattus norvegicus [9]): 17.2%
Activity (Rattus norvegicus [10]): 19.2%
Activity (Syrian golden hamster [2]): 11%
Activity (L6 [3]): 188%
Activity (Syrian golden hamster [4]): 20%
Activity (Syrian golden hamster [5]): 21%
Activity (Syrian golden hamster [6]): 19%
Activity (L6 [13]): 73.5%
Activity [7]: 16
Activity [8]: 14

Cc1ccc(C(=O)c2cc3cc(/C=C/C(=O)c4ccc5c(c4O)C=CC(C)(C)O5)ccc3o2)cc1
Activity (Syrian golden hamster [1]): 13%
Activity (Syrian golden hamster [2]): 13%
Activity (L6 [3]): 53.1%
Activity (Syrian golden hamster [4]): 17%
Activity (Syrian golden hamster [5]): 18%
Activity (Syrian golden hamster [6]): 11%
Activity [7]: 10
Activity [8]: 11

CC1(C)C=Cc2ccc(O)c(C(=O)/C=C/c3ccc4oc(C(=O)c5ccc(Cl)cc5)cc4c3)c2O1
Activity (Syrian golden hamster [1]): 8%
Activity (Syrian golden hamster [2]): 7%
Activity (L6 [3]): 89%
Activity (Syrian golden hamster [4]): 10%
Activity (Syrian golden hamster [5]): 11%
Activity (Syrian golden hamster [6]): 6%
Activity [7]: 12
Activity [8]: 17

CN(C)C(=N)NC(=N)N [METFORMIN]
Activity (Rattus norvegicus [9]): 27.9%
Activity (Rattus norvegicus [10]): 30.5%

CN(CCOc1ccc(CC2SC(=O)NC2=O)cc1)c1ccccn1 (stereo not drawn) [ROSIGLITAZONE]
Activity (L6 [3]): 96.5%
